Paper PMC4109680, “Identification and Preclinical Pharmacology of the γ-Secretase Modulator BMS-869780” (International Journal of Alzheimer's Disease, 2014)

What was measured:
Aβ1-42 (H4-APPsw) = assay: Aβ1-42 time-resolved fluorescence immunoassay in H4-APPsw cell cultures; type: cell-based, human; conditions: Homo sapiens; H4-APPsw cultures treated overnight
Method: (§1) H4-APPsw cell cultures were maintained on Dulbecco's modified Eagle's medium (DMEM) supplemented with L-glutamine (2 mM), fetal bovine serum (10%), and G418 (100 μg/mL). […] Aβ1-42 and Aβ1-40 assays, and Notch inhibition assays, were carried out as described previously. Mouse embryonic fibroblasts deficient in PS1 and PS2 (MEF dKO) were passaged twice per week in DMEM/F-12 medium, consisting of a 1 : 1 mixture of DMEM and F-12 nutrient mixture supplemented with 10% fetal bovine serum, penicillin, and streptomycin. For expression of human presenilin-1 in MEF dKO cells, the full length human presenilin-1 cDNA open reading frame was cloned between the BamHI and XhoI sites of the vector pcDNA5/FRT (Invitrogen), placing presenilin-1 expression under the control of the CMV promoter. The M146V mutated allele was introduced into the presenilin-1 expression construct by polymerase chain reaction using the oligonucleotide primers 5′-[…]-3′ and 5′-[…]-3 (QuikChange kit, Invitrogen). MEF dKO cultures were cotransfected with DNA constructs expressing APP-CTF, encoding the C-terminal 99 amino acids of APP [61] and either the human presenilin-1 or presenilin-1 M146V allele. Transfected cultures were incubated overnight at 37°C in 5% CO2 atmosphere and then harvested, resuspended in DMEM/F-12 medium, dispensed into 96-well culture plates, and incubated for 6 hours at 37°C in 5% CO2 atmosphere. Culture medium was then replaced with Ultraculture serum free medium (Lonza, Rockland, ME) with or without compounds at a range of concentrations and incubated overnight.
(§2) IC50 determinations for Aβ1-42 and Aβ1-40 in H4-APPsw cultures in 384-well format were determined using homogeneous time-resolved fluorescence immunoassays as previously described. The principle of these assays is illustrated in Figures 1(c) and 1(d). In other experiments using H4-APPsw cultures, Aβ was quantified by ELISA; for Aβ1-42 the combination of monoclonal antibodies was 26D6 and 565-HRP; for Aβ1-40 it was TSD and 26D6-HRP, and for Aβ1-x it was 4G8 and 26D6-HRP. In some experiments a novel 4-plex Aβ electrochemiluminescence immunoassay was used (Mesoscale Discovery catalog number N45ZA-1). Briefly, the 4-plex was carried out in 96-well format, with 4 separate spots of capture antibodies in each well. […] For Aβ in transiently transfected PS1/PS2 dKO fibroblasts, Aβ1-42 was quantified using an ELISA kit (WACO), and Aβ1-40 was quantified by ELISA as described above for H4-APPsw cultures. […] For the rat and mouse experiments illustrated in Figures 7 and 8, brain samples were prepared by solid phase extraction, and endogenous rat brain Aβ1-42 and Aβ1-40 were quantified by ELISA as previously described for wild type mice. […]

mNotch1ΔE = assay: Notch signaling CBF1-luciferase reporter assay in HeLa cells transfected with mNotch1ΔE; type: cell-based
Method: (§3) Inhibition of Notch signaling in cultured cells using a mouse-derived truncated Notch1 transgene, mNotch-ΔE [67], has been described in detail previously. Western blots for mNotchΔ1865 and NICD using 9E10 anti-c-myc monoclonal were carried out as previously described.
(§4) The effect of BMS-869780 on Notch processing was evaluated using transcriptional reporter assays and western blotting of NICD levels. HeLa cell cultures were transfected with mNotch1ΔE and CBF1-luciferase reporter constructs and treated with BMS-869780. In most replicates of this experiment, inhibition of luciferase reporter occurred with IC50 > 10 μM. […] To further evaluate the effect of BMS-869780 on Notch processing, western blots of cell cultures were carried out using mNotch1Δ1865, a truncated version of mNotch1ΔE that facilitates separation of NICD product from mNotch1 substrate on western blots. HeLa cell cultures were transfected with mNotch1Δ1865 and treated overnight with compounds before western blotting. […] Furthermore, the GSIs caused an increased level of mNotch1Δ1865 substrate, most likely due to inhibition of its turnover by γ-secretase, as previously noted by Blat et al..
(§5) (b) HeLa cell cultures were transfected with mNotchΔ1865, treated with compounds overnight, and cell extracts were evaluated by western blot using anti-c-myc-HRP conjugate. Lanes 1 and 9: DMSO (0.1%) vehicle. Lane 2: BMS-299897 at 1 μM. Lane 3: BMS-433796 at 0.3 μM. Lanes 4–8: BMS-869780 at 0.1, 0.3, 1, 3, and 10 μM, respectively.

mNotch1Δ1865 = assay: Western blot of NICD and mNotch1Δ1865 in transfected HeLa cell cultures; type: cell-based; conditions: BMS-299897 at 1 μM, BMS-433796 at 0.3 μM
Method: as §3, §4, §5

Aβ1-40 (H4-APPsw) = assay: Aβ1-40 time-resolved fluorescence immunoassay in H4-APPsw cell cultures; type: cell-based, human; conditions: Homo sapiens; H4-APPsw cultures treated overnight
Method: as §1, §2

C[C@H](NC(=O)[C@@H](O)c1cc(F)cc(F)c1)C(=O)N[C@@H]1C(=O)N(C)N=Cc2ccccc21 [BMS-433796, (S)-2-((S)-2-(3,5-difluorophenyl)-2-hydroxyacetamido)-N-((S,Z)-3-methyl-4-oxo-4,5-dihydro-3H-benzo[d][1,2]diazepin-5-yl)propanamide, reference compound]
IC50 (Aβ1-42 (H4-APPsw)): 0.16 nM | Notch/Aβ1-42 IC50 ratios (mNotch1ΔE; GSIs): 13 | IC50 (mNotch1ΔE; HeLa, treated overnight): 2.1 nM | mNotch1ΔE/Aβ1-42 (mNotch1ΔE; ratio of IC50 values): 13x | NICD levels (mNotch1Δ1865): greatly reduced NICD | IC50 (Aβ1-40 (H4-APPsw)): 0.19 nM
